From patent publication US6288091A, “Antiherpes virus compounds and methods for their preparation and use” (Boehringer Ingelheim Ltd., priority 1999, dated 2001)
Where two headings read alike, the source gives them in different places.

Assays:
HSV-1 helicase-primase = molecular target: T1, HSV-1 helicase-primase (Human herpesvirus 1, UniProt P10189+P10236); experiment: HSV-1 DNA-dependent ATPase assay (inhibition of HSV-1 helicase-primase); assay type: biochemical
T1 construct: made in house; host or cells: Sf21 insect cells triply infected with recombinant baculoviruses (UL5, UL8, UL52)
T1 sequence (P10192 whole entry): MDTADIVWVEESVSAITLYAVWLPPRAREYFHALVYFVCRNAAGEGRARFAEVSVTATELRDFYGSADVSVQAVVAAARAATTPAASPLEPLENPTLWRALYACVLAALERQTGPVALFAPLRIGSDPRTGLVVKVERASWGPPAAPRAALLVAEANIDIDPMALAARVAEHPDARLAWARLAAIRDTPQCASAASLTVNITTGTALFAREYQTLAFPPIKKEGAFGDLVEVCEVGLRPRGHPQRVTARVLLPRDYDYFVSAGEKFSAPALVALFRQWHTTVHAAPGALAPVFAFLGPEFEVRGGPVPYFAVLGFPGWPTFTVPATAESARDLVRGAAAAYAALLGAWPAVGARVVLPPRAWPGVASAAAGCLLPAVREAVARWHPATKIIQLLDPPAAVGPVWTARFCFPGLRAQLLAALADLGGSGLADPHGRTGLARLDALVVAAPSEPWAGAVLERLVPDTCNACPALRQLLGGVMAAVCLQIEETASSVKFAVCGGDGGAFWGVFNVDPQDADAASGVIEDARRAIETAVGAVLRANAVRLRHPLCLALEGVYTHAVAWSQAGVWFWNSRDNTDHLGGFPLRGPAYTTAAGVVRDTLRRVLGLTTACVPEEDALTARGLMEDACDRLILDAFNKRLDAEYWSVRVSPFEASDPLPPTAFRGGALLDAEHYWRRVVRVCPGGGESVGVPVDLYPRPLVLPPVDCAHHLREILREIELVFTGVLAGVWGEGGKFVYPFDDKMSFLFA
T1 sequence (P10236 whole entry): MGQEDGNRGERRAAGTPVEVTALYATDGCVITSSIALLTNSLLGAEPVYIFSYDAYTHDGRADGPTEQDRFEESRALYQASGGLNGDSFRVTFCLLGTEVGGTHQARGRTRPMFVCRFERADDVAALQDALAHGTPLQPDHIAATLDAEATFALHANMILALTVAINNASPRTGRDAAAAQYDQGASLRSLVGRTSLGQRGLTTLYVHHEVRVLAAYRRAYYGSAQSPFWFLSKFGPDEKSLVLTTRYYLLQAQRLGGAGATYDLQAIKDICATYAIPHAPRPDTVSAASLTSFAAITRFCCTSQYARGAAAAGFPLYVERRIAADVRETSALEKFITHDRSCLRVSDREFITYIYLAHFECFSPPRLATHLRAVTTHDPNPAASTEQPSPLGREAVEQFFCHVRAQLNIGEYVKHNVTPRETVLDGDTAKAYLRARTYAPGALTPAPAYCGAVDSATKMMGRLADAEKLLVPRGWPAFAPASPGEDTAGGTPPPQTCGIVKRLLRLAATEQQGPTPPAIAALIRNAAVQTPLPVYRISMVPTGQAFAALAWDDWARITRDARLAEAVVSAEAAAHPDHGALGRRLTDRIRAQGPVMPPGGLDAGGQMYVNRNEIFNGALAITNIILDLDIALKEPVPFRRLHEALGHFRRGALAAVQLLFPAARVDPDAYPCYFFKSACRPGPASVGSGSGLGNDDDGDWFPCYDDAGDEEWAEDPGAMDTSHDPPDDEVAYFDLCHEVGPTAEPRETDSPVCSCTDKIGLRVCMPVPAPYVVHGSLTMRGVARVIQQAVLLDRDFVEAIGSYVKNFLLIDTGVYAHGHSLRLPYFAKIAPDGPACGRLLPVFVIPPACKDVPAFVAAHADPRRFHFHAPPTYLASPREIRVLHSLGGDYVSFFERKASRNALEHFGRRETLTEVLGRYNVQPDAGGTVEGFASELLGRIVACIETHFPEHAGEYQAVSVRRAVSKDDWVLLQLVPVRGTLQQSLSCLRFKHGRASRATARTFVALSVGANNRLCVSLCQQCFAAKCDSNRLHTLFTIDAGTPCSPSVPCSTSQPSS
T1 sequence (P10189 whole entry): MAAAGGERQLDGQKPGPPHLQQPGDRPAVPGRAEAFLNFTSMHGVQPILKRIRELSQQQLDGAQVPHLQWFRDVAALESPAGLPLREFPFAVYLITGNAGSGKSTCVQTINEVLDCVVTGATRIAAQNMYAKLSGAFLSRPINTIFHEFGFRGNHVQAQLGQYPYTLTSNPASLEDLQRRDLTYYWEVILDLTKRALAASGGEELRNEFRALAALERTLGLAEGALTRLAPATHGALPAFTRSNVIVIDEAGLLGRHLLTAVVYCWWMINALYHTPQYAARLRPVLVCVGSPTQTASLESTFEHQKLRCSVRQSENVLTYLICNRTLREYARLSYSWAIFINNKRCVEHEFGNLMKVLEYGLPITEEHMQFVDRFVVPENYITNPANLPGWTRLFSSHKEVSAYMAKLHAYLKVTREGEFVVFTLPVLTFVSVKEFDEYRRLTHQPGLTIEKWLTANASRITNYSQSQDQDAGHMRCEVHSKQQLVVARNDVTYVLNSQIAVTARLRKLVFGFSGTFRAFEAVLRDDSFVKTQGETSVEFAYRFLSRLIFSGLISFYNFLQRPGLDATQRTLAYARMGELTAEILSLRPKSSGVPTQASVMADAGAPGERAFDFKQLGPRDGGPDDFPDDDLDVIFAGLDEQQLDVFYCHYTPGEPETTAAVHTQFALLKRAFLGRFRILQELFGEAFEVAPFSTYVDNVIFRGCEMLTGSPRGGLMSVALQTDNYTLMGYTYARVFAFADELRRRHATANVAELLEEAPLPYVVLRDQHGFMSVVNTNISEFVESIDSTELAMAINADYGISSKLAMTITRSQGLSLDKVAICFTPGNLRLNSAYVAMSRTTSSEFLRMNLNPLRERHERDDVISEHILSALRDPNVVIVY
Summary of the method: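 Holoenzyme (UL5/UL8/UL52) expressed in baculovirus-infected Sf21 cells and purified, used at 3 μg/mL with 4 mM ATP and 25 μM primed M13 ssDNA in HEPES pH 7.5, 5.5 mM MgCl2, 3.3% DMSO. Incubated 20 min at 34°. Released phosphate read by malachite green at 650 nm, and activity taken from net absorbance with versus without inhibitor.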

HSV-1 strain F or KOS = experiment: Inhibition of herpes simplex virus (HSV-1) replication in cell culture (BHK-21 cells, glycoprotein C ELISA); assay type: cell-based
Summary of the method: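 BHK-21 clone 13 cells infected with HSV-1 F or KOS at MOI 0.05 PFU/cell for 1 h at 37°, washed, then treated with compound in α-MEM/2% FBS for 24 h. Late glycoprotein C quantified by ELISA (mAb C11, HRP/OPD, 450 nm); EC50 from % inhibition.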

HCMV (strain AD169) = experiment: Inhibition of HCMV replication, ELISA assay (Hs-68 cells); assay type: cell-based, Human Cytomegalovirus (HCMV); conditions: read-out: ELISA CMV EC50
Method: C) Inhibition of Human Cytomegalovirus (HCMV) Replication
The effect of compounds on the replication of HCMV has been measured by using an ELISA-based assay (ELISA) and a plaque reduction assay (PRA).
Hs-68 cells (ATCC # CRL 1635) were seeded in 96 well microtiter plates at 10,000 cells/well in 100 μL of DMEM medium (Gibco Canada Inc.) supplemented with 10% fetal bovine serum (FBS, Gibco Canada Inc.). The plates were incubated for 3 days at 37° to allow the cells to reach 80-90% confluency prior to the assay.
The medium was removed from wells by aspiration. The cells then were infected at a multiplicity of infection (MOI) of 0.01 PFU/cell with 50 μL of HCMV (strain AD169, ATCC VR-538) in DMEM medium supplemented with 5% heat inactivated FBS (assay medium). The virus was allowed to adsorb to cells for 2 h at 37°. Following viral adsorption, the medium was removed from the wells by aspiration. The cells were washed twice with 200 μL of assay medium to remove unabsorbed virus. The cells were then incubated with or without 100 μL of appropriate concentrations of test reagent in assay medium. After 8 days of incubation at 37°, the extent of viral replication was determined by an ELISA assay which detects the late structural protein p28 of HCMV.
Eight days after infection, the medium was aspirated from the wells. Non-specific binding sites were blocked by adding 200 μL of phosphate buffered saline containing 1% (w/v) bovine serum albumin (blocking buffer) to each well and incubating the plates for 30 min at room temperature. After removal of the blocking buffer by aspiration, the cells were fixed with 100 μL of cold ethanol-acetone solution (95:5) per well. The plates were placed at -20° for 30 min. The plates were washed 4 times with phosphate buffered saline containing 0.05% (v/v) polyoxyethylene sorbitan monolaurate (Tween®). Thereafter, 100 μL of mAb UL99 (Advanced Biotechnologies Inc., #13-130-100) recognizing HCMV protein p28 was added to each wells and plates were incubated for 2 h at room temperature. The plates were washed four times with 200 μL of the above-noted phosphate buffered saline/Tween-20® solution. The cells were then incubated with 100 μL of sheep anti-mouse IgGγ horseradish peroxidase conjugated for 2 h at room temperature. The plates were then washed four times with 200 μL of above-noted phosphate buffered saline/Tween-20® solution. Thereafter, 100 μL of ortho phenylenediamine dihydrochloride (OPD, Gibco Canada Inc.) solution was added to each well and the plates were agitated on a microplate shaker for 30 min in the dark. Color development was monitored at 450 nm using a microplate spectrophotometer.
The SAS program was used to calculate the % inhibition of viral replication and to generate EC50 values.
The EC50 values obtained according to this assay method for certain thiazolylphenyl derivatives of this invention are listed in the following tables under the heading ELISA CMV.

[1] = Human alphaherpesvirus 1, BHK-21, Group 1 Table 5 entries
[2] = Human betaherpesvirus 5, AD169, Hs68, Group 1 Table 5 entries
[3] = Human alphaherpesvirus 1, BHK-21, Group 1 Table 3 entries
[4] = Human betaherpesvirus 5, AD169, Hs68, Group 1 Table 3 entries
[5] = Human alphaherpesvirus 1, BHK-21, Group 1 Table 1 entries
[6] = Human betaherpesvirus 5, AD169, Hs68, Group 1 Table 1 entries

Structure (SMILES) | IC50 (HSV-1 helicase-primase; Group 1 Table 5 entries) | EC50 (HSV-1 strain F or KOS; [1]) | EC50 (HCMV (strain AD169); [2]) | IC50 (HSV-1 helicase-primase; Group 1 Table 1 entries) | EC50 (HSV-1 strain F or KOS; [5]) | EC50 (HCMV (strain AD169); [6]) | other results
C[C@@H](C(=O)Nc1ccc(-c2csc(N)n2)cc1)N(Cc1ccccc1)C(=O)OC(C)(C)C [Example 16] | 460 nM | 79 nM | 2800 nM |  |  |  | 
CN(C)c1nc(-c2ccc(NC(=O)CN(CC3CCCCC3)C(=O)OC(C)(C)C)cc2)cs1 [Example 17] |  |  |  |  |  |  | IC50 (HSV-1 helicase-primase; Group 1 Table 3 entries): > 50000 nM; EC50 (HSV-1 strain F or KOS; [3]): > 8000 nM; EC50 (HCMV (strain AD169); [4]): 4000 nM
C[C@H](C(=O)Nc1ccc(-c2csc(N)n2)cc1)N(Cc1ccccc1)C(=O)OC(C)(C)C [Example 17] | 110 nM | 55 nM | 7600 nM |  |  |  | 
CC(=O)Nc1nc(-c2ccc(NC(=O)CN(Cc3ccccc3)C(=O)c3ccncc3)cc2)cs1 [Example 19] |  |  |  |  |  |  | IC50 (HSV-1 helicase-primase; Group 1 Table 3 entries): > 50000 nM; EC50 (HSV-1 strain F or KOS; [3]): 9000 nM; EC50 (HCMV (strain AD169); [4]): 28000 nM
CC(C)(C)C(=O)N[C@@H](Cc1ccccc1)C(=O)Nc1ccc(-c2csc(N)n2)cc1 [Example 20] | 1300 nM | 600 nM | 10000 nM |  |  |  | 
CC(=O)N[C@@H](Cc1ccccc1)C(=O)Nc1ccc(-c2csc(N)n2)cc1 [Example 21] | 3100 nM | 4700 nM | 4400 nM |  |  |  | 
CC(C)OC(=O)N[C@@H](Cc1ccccc1)C(=O)Nc1ccc(-c2csc(N)n2)cc1 [Example 22] | 830 nM | 250 nM | 18000 nM |  |  |  | 
CC(C)(C)OC(=O)N[C@@H](CC1CCCCC1)C(=O)Nc1ccc(-c2csc(N)n2)cc1 [Example 24] | 17 nM | 43 nM | 8100 nM |  |  |  | 
Cc1cccc(C)c1C(=O)N(CC(=O)Nc1ccc(-c2csc(N)n2)cc1)Cc1ccccc1 [Example 25] |  |  |  | 47 nM | 11 nM | 4400 nM | 
CC(C)(C)OC(=O)N[C@@H](Cc1cccnc1)C(=O)Nc1ccc(-c2csc(N)n2)cc1 [Example 26] | 130 nM | 43 nM | 19900 nM |  |  |  | 
Nc1nc(-c2ccc(NC(=O)NN3CCCCC3)cc2)cs1 [Example 27] |  |  |  |  |  |  | IC50 (HSV-1 helicase-primase; Group 2 Table 1 entries): 50000 nM; EC50 (HSV-1 strain F or KOS; Human alphaherpesvirus 1, BHK-21, Group 2 Table 1 entries): 15700 nM; EC50 (HCMV (strain AD169); Human betaherpesvirus 5, AD169, Hs68, Group 2 Table 1 entries): 15400 nM
C[C@@H](c1ccccc1)N(C)CCC(=O)Nc1ccc(-c2csc(N)n2)cc1 [Example 28] |  |  |  |  |  |  | EC50 (HSV-1 strain F or KOS; Human alphaherpesvirus 1, BHK-21, Group 1 Table 2 entries): 2000 nM; EC50 (HCMV (strain AD169); Human betaherpesvirus 5, AD169, Hs68, Group 1 Table 2 entries): 18000 nM
CC1(C(=O)N(CC(=O)Nc2ccc(-c3csc(N)n3)cc2)Cc2ccccc2)CCCCC1 [Example 35] |  |  |  | 35 nM | 6 nM | 8100 nM | 
CC(C)(C)OC(=O)N1CCC(C(=O)N(CC(=O)Nc2ccc(-c3csc(N)n3)cc2)Cc2ccccc2)CC1 [Example 40] |  |  |  | 1700 nM | 700 nM | 25000 nM | 
COc1ccc(CN(CC(=O)Nc2ccc(-c3csc(N)n3)cc2)C(=O)C2CCCCC2)cc1 [Example 46] |  |  |  | 75 nM | 94 nM | 8000 nM | 
Nc1nc(-c2ccc(NC(=O)CN(Cc3ccccn3)C(=O)c3ccncc3)cc2)cs1 [Example 56] |  |  |  | 1200 nM | 550 nM | 38000 nM | 
C[C@@H](C1CCCCC1)N(CC(=O)Nc1ccc(-c2csc(N)n2)cc1)C(=O)OC(C)(C)C [Example 108] |  |  |  |  | 390 nM | 6800 nM | 
CC(C)CN(CC(=O)Nc1ccc(-c2csc(N)n2)cc1)C(=O)OC(C)(C)C [Example 112] |  |  |  |  | 1200 nM | 3200 nM | 
Nc1nc(CC(=O)N(CC(=O)Nc2ccc(-c3csc(N)n3)cc2)Cc2ccccc2)cs1 [Example 119] |  |  |  | 680 nM |  | 25000 nM | 
CN1CCC(C(=O)N(CC(=O)Nc2ccc(-c3csc(N)n3)cc2)Cc2ccccc2)CC1 [Example 123] |  |  |  | > 50000 nM |  | 41000 nM | 
